{"source": "patent US6589943B2", "about": "“Formulation of amphiphilic heparin derivatives for enhancing mucosal absorption” (Mediplex Corporation, Korea, priority 2001, dated 2003)", "key": {"[1]": {"details": "background, literature; cited from earlier work"}, "[2]": {"assay": "zeta potential of particles in sodium bicarbonate buffer", "format": "physicochemical", "method": "Surface Charges of Heparin-DOCA Particle. Zeta potentials of heparin-DOCA particles in sodium bicarbonate buffer were measured according to procedures well known in the art. The negative potential of heparin-DOCA conjugate particles was decreased by mixing with free DOCA. This was due to the fact that the DOCA moiety coupled to heparin could be exposed on the surface of heparin-DOCA conjugate particles by mixing with free DOCA."}}}
{"molecule": "heparin", "values": [{"measurement": "absorption in the GI tract", "setting": "[1]", "value": "not absorbed in the GI tract"}]}
{"molecule": "C[C@H](CCC(=O)O)[C@H]1CC[C@H]2[C@@H]3CC[C@@H]4C[C@H](O)CC[C@]4(C)[C@H]3C[C@H](O)[C@]12C", "note": "[Bile Acid, deoxycholic acid]", "values": [{"measurement": "Zeta Potential", "setting": "[2]", "value": "−22.3 ± 11.4", "unit": "mv"}]}
